Measurements as given in patent US6172205A, “Synthetic process toward total synthesis of eleutherobin and its analogues and uses thereof” (The Trustees of Columbia in the City of New York, priority 1998, dated 2001).
pIC50: −log10 of the molar value. Entries after “also recorded” stand apart in the source; their conditions may differ.

How the values were obtained:
[1] = Solubility compared to eleutherobin; format: physicochemical
[2] = test system: Human ovarian carcinoma cells SKOV3; test: Cytotoxicity by counting cells after 72 h, Taxol-sensitive cells; format: cell-based; conditions: SK-OV-3, 72 h
Description: (§1) Human non-small cell lung carcinoma cells, A549, were maintained in RPMI 1640 containing 10% fetal bovine serum and 1% penicillin-streptomycin (Gibco Laboratories, Grand Island N.Y.) at 37° C. in 7% CO2. The Taxol-resistant cell line A549-T12 was selected for resistance to Taxol and maintained in a final concentration of 12 nM drug (21). Human ovarian carcinoma cells SKOV3 and the MDR variant SKVBL (obtained from Dr. V. Ling) were maintained in α-mem plus ribonucleotides, deoxynucleotides, 15% fetal bovine serum and 1% penicillin-streptomycin (Gibco Laboratories) at 37° C. in 5% CO2. SKVBL cells were maintained in […] vinblastine (Sigma Chemical Co.).
(§2) Taxol-resistant and sensitive cell lines were seeded into 12-well plates at a density of 5×10^4 cells per well and allowed a period of 12 h for attachment prior to treatment. Cells were exposed to 10-fold serial dilutions of each compound (10^-10 to 10^-6 M) for 72 h. Cells were then trypsinized and counted (Coulter counter model ZF0031, Coulter Corp., Miami, Fla.). The IC50 was determined by plotting cell number against log of the drug concentration and this was used to determine the concentration of compound resulting in 50% growth inhibition compared to untreated cells. Each cell line was assayed in a minimum of 3 independent experiments with each compound and the results expressed as the mean IC50.
(§3) ^a Cytotoxicity determined by counting cells after 72 h drug exposure.

[3] = SKBII.294 and 298 structures compared; cited from earlier work
P-glycoprotein = P-glycoprotein substrate behaviour inferred from resistance of SKVBL cells; format: cell-based, human
Description: as §1, §2
(§4) The cytotoxic efficacy of eleutherobin and its derivatives (FIG. 6) was evaluated in two drug sensitive human cancer cell lines and their Taxol-resistant counterparts. The results are summarized in Table I in order of decreasing potency. […] The Taxol-resistant cell line SKVBL overexpresses high levels of P-glycoprotein (22). […] The only difference between the two agents is the enantiomeric relationship in the carbohydrate (2'-acetylarabinose) sector (FIG. 6). […] This cell line expressed high levels of MDR1 resulting in Taxol-resistance equal or greater than 1666 -fold compared to the Taxol-sensitive SKOV3 cell line.

[4] = test system: cellular microtubules, NIH 3T3 cells; test: Microtubule bundle formation by immunofluorescence; format: cell-based; conditions: 2 μM, 5.5 h, 37 °C
Description: FIG. 9 immunofluorescence images NIH3T3 cells labeled with β-tubulin antibody following exposure to different drugs. A)DMSO; B)2 μM Taxol; C)2 μM eleutherobin; D)2 μM neo-eleutherobin; E)2 μM SKBII.294; F)2 μM SKBIII.13.
Illustrates the effects of eleutherobin and its derivatives on the morphology of cellular microtubules following exposure of cells to 2 μM of each compound for 5.5 h at 37° C. […] The number of micotic asters correlated with the extent of microtubule bundling in interphase cells.
(§5) NIH 3T3 cells were grown to subconfluency on glass converslips in 35 mm plastic petri dishes. Cells were exposed to 2 μM of Taxol and each of the experimental compounds for 5.5 h at 37° C., rinsed twice in PBS and extracted with 0.5% Triton-X-100 in microtubule stabilizing buffer (PEM) (100 mM PIPES, 2 mM EGTA and 2 mM MgCl2, pH 6.8) for 4 min. Following a wash in PEM, the cells were fixed for 40 min at room temperature in 3% formaldehyde in PEM followed by incubation in 0.1 M glycine in PBS for 10 min and washing (four times) in PEM containing 5 μM EGTA. Following blocking in 20% normal goat serum (NGS) for 30 min at room temperature, cells were incubated for 1 h at 37° C. with a 1:100 dilution of β-tubulin mAb diluted in 10% NGS, washed twice in 1% BSA, once in PBS and three times in 1% BSA. Cells were then incubated in a 1:200 dilution of the secondary fluorophore antibody, IndocarbocyanineCY3 (Jackson Immunoresearch Laboratories Inc., Pa.) in 20% NGS for 20 min at room temperature. Finally cells were washed three times in 1% BSA and the dried slides mounted in 30% glycerol in PBS containing […]-phenylene diamine (1 mg/ml). Fixed slides were examined using a Zeiss Axioskop microscope.

[5] = test system: A549-T12 (Taxol-resistant A549); test: Cytotoxicity by counting cells after 72 h, Taxol-resistant cells; format: cell-based, human
Description: as §1, §2, §4, §3

[6] = test system: SKVBL (MDR variant of SKOV3); test: Cytotoxicity by counting cells after 72 h, MDR variant cells; format: cell-based, human
Description: as §1, §2, §4, §3

[7] = test system: tubulin / microtubule protein; test: Tubulin polymerization by turbidity at 350 nm in the absence of GTP; format: biochemical, calf; conditions: 10 μM, relative to eleutherobin
Description: Eleutherobin and its derivatives were synthesized as described (18,19). Taxol was obtained from the Drug Development Branch, National Cancer Institute (Bethesda, Md.). All compounds were dissolved in dimethyl sulfoxide (Sigma Chemical Co., St. Louis, Mo.) at stock concentrations of 5 mM and stored at -20° C. All control samples contained an equal volume of DMSO. GTP was obtained from Sigma Chemical Co. And dissolved in sterile distilled water at a concentration of 10 mM and stored at -20° C. Microtubule protein was purified from calf brains by two cycles of temperature-dependent assembly and disassembly (20) and stored in liquid nitrogen prior to use. The anti-mouse β-tubulin monoclonal antibody T-4026 was obtained from Sigma Chemical Co.
The ability of each compound to polymerize tubulin was evaluated by recording the change in turbidity of microtubule protein at 350 nm for 80 min in a spectrophotometer (UVIKON, Research Instruments Int., SD, Calif.). One mg of purified microtubule protein was diluted in assembly buffer containing 0.1 M MES, 1 mM EGTA, 0.5 mM MgCl2 and 3 M glycerol, pH 6.6. All compounds were evaluated at a concentration of 10 μM at 37° C. […] Microtubule stability was assessed by the addition of 10 mM Ca^++. changes from t=0-10 min were used to calculate initial slopes from the linear portion of each curve. These values were used to calculate the activity of each compound (relative to the activity of Taxol which was assigned a value of 100%).
The polymerization activity of these compounds was also assessed by determining the slope of the linear portion of each curve at A350 nm (t=0-10 min), and expressing this relative to Taxol (which was assigned a value of 100% (FIG. 8). The order of activity of eleutherobin and derivatives using this method, corroborates the results obtained from cytotoxicity studies.

[8] = test system: Human non-small cell lung carcinoma cells, A549; test: Cytotoxicity by counting cells after 72 h, Taxol-sensitive cells; format: cell-based; conditions: for pIC50: Homo sapiens, A549, 72 h; for cytotoxicity (in words): sensitive cell lines (A549, SKOV3)
Description: Taxol-resistant and sensitive cell lines were seeded into 12-well plates at a density of 5×10^4 cells per well and allowed a period of 12 h for attachment prior to treatment. […] Cells were then trypsinized and counted (Coulter counter model ZF0031, Coulter Corp., Miami, Fla.).

[9] = Overall biological activity, all parameters tested
Description: as §2
The ability of each compound to polymerize tubulin was evaluated by recording the change in turbidity of microtubule protein at 350 nm for 80 min in a spectrophotometer (UVIKON, Research Instruments Int., SD, Calif.). One mg of purified microtubule protein was diluted in assembly buffer containing 0.1 M MES, 1 mM EGTA, 0.5 mM MgCl2 and 3 M glycerol, pH 6.6. All compounds were evaluated at a concentration of 10 μM at 37° C. GTP was used at a final concentration of 1 mM. Microtubule stability was assessed by the addition of 10 mM Ca^++. changes from t=0-10 min were used to calculate initial slopes from the linear portion of each curve. These values were used to calculate the activity of each compound (relative to the activity of Taxol which was assigned a value of 100%).
as §5

SMILES | solubility (in words) [1] | pIC50 [2] | activity reported for compounds with the same structures (in words) [3] | P-glycoprotein substrate (in words) (P-glycoprotein) | microtubule bundle formation (in words) [4] | fold resistance relative to the parental cell line ([5]; A549-T12 vs A549, 4320 min) [fold] | pIC50 ([5]; Homo sapiens, Lung Carcinoma A549, Resistant (A549-T12), 72 h, mean of at least three independent experiments) | pIC50 ([6]; Homo sapiens, SK-OV-3, Ovarian Carcinoma SKOV3, Resistant (SKVBL), 72 h, mean of at least three independent experiments) | cross-resistance in SKVBL (in words) ([6]; MDR1 expressing cells, high P-glycoprotein) | fold resistance relative to the parental cell line ([6]; SKVBL vs SKOV3) [fold] | microtubule polymerization activity relative to eleutherobin [7] [%] | pIC50 [8] | cytotoxicity (in words) [8] | biological activity (in words) [9]
CO[C@]12C=C[C@](C)(O1)[C@@H](OC(=O)/C=C/c1cn(C)cn1)C[C@H]1C(C)=CC[C@H](C(C)C)[C@H]1C=C2COC(C)=O [SKBII.294] | reduced solubility compared to eleutherobin | 6.51 | equal activity | considerably less attractive for P-glycoprotein compared to eleutherobin and neo-eleutherobin | reduced bundle formation in cultured cells; also recorded: induced less bundle formation than neo-eleutherobin | 1.1 | 6.79 | 5.98 | essentially not cross-resistant | 3.4 | 54 | 6.82 | less cytotoxic than either eleutherobin or neo-eleutherobin; also recorded: more cytotoxic than to SKBII.296 | –
CO[C@]12C=C[C@](C)(O1)[C@@H](OC(=O)/C=C/c1cn(C)cn1)C[C@H]1C(C)=CC[C@H](C(C)C)[C@H]1C=C2CO [SKBII.298] | reduced solubility compared to eleutherobin | < 5.30 | equal activity | – | induced less bundle formation than neo-eleutherobin | – | – | – | – | – | 36 | 5.98 | considerably less cytotoxic (in the μM range) | the least active compound in this sub-group
